Laboratory results reported in the Deep4Chem optical property database.
Values joined by “and” are separate entries in the source; they are usually repeats but may differ in a detail not shown here. Equal entries are not always repeated. Blank lines part the entries; values can stand above or below the compound they belong to.

Assay: solvent given as SMILES

Compound: CCCCCCC(CCCCCC)N1C(=O)c2cccc3c(-c4ccc(C#N)cc4)ccc(c23)C1=O
fluorescence lifetime (in CCCCCC): 1.02 ns
fluorescence lifetime (in CCCCCCCCCCCCCC): 0.994 ns
fluorescence lifetime (in CCCCCCCCCCCO): 2.12 ns
fluorescence lifetime (in CCCCO): 2.21 ns
fluorescence lifetime (in CN(C)C=O): 2.15 ns
fluorescence lifetime (in Cc1ccccc1): 1.16 ns
fluorescence lifetime (in ClC(Cl)Cl): 1.34 ns

Compound: N#Cc1cccc(C#N)c1-n1c2ccccc2c2cc(-c3ccc4c(c3)c3ccccc3n4-c3c(C#N)cccc3C#N)ccc21
fluorescence lifetime (in Cc1ccccc1): 28 ns

Compound: Cc1cc(C)c2cc3cc(C)ncc3cc2c1
fluorescence lifetime (in CCO): 18 ns

Compound: c1ccc(-c2cc(-c3ccc(N4c5ccccc5C(c5ccccc5)(c5ccccc5)c5ccccc54)cn3)nc(-c3ccccc3)n2)cc1
fluorescence lifetime (in O=P(c1ccccc1)(c1ccccc1)c1ccccc1Oc1ccccc1P(=O)(c1ccccc1)c1ccccc1): 13.3 ns

Compound: c1ccc(N(c2ccccc2)c2ccc(-c3ccc4c(c3)C3(c5cc(-c6ccc(N(c7ccccc7)c7ccccc7)cc6)ccc5-4)c4ccccc4N(c4ccccc4)c4ccccc43)cc2)cc1
fluorescence lifetime (in ClCCl): 1.2 ns

Compound: COc1ccc(/C=C/C2=CC(/C=C/c3ccc(OC)cc3)=[O+][B-](OC(C)=O)(OC(C)=O)O2)cc1
fluorescence lifetime (in C1CCOC1): 2.38 ns
fluorescence lifetime (in CC#N): 2.09 ns
fluorescence lifetime (in CC(C)=O): 2.29 ns
fluorescence lifetime (in CS(C)=O): 2.26 ns
fluorescence lifetime (in Cc1ccccc1): 2.45 ns
fluorescence lifetime (in ClC(Cl)Cl): 2.52 ns
fluorescence lifetime (in ClCCl): 2.63 ns

Compound: c1ccc(N(c2ccccc2)c2ccc(-c3cccc4nc5ccccc5cc34)cc2)cc1
fluorescence lifetime (in CC#N): 6.83 ns
fluorescence lifetime (in CCCCCC): 1.95 ns
fluorescence lifetime (in CCOCC): 6.67 ns
fluorescence lifetime (in ClCCl): 14.5 ns

Compound: CCOC(=O)/N=c1/oc2c(OC)cccc2cc1C#N
fluorescence lifetime (in ClCCl): 0.3 ns

Compound: CC(C)(C)c1ccc2c(c1)c1cc(C(C)(C)C)ccc1n2-c1ccc(C#Cc2ccc3c4ccc(C#Cc5ccc(C=O)cc5)cc4n(-c4ccc(C(F)(F)F)cc4)c3c2)cc1
fluorescence lifetime (in ClCCl): 0.84 ns

Compound: N#Cc1c(-n2c3ccccc3c3ccccc32)c(-n2c3ccccc3c3ccccc32)c(C#N)c(-n2c3ccccc3c3ccccc32)c1-n1c2ccccc2c2ccccc21
fluorescence lifetime (in Cc1ccccc1): 8.8 ns

Compound: CC1=C(c2cccs2)C(C)=[N+]2C1=C(c1ccccc1)c1c(C)c(-c3cccs3)c(C)n1[B-]2(F)F
fluorescence lifetime (in Cc1ccccc1): 3.4 ns

Compound: N#Cc1c[nH]c2ccccc12
fluorescence lifetime (in C1CCOC1): 3.1 ns
fluorescence lifetime (in C1COCCO1): 3 ns
fluorescence lifetime (in CC#N): 1.8 ns
fluorescence lifetime (in CS(C)=O): 0.2 ns

Compound: O=C1c2ccc3c4ccc5c6c(ccc(c7ccc(c2c37)C(=O)N1c1ccc(O)cc1)c64)C(=O)N(c1ccc(O)cc1)C5=O
fluorescence lifetime (in C1CCOC1): 1.6 ns
fluorescence lifetime (in CN1CCCC1=O): 0.2 ns
fluorescence lifetime (in CN(C)C=O): 2.2 ns and 3.9 ns

Compound: [NH3+]C(Cc1ccc(O)cc1)C(=O)[O-] (stereo not given)
fluorescence lifetime (in O): 3.27 ns

Compound: CC(C)(C)OC(=O)NC(Cc1ccc2oc(-c3ccccn3)nc2c1)C(=O)O (stereo not given)
fluorescence lifetime (in CC1CCCCC1): 2.9 ns
fluorescence lifetime (in CC#N): 1.92 ns
fluorescence lifetime (in CO): 1.19 ns

Compound: Cc1cc(=O)[nH]c(=O)[nH]1
fluorescence lifetime (in CC#N): 0.0001 ns

Compound: CC(C)(C)NC(=O)c1c([Si](C)(C)C)cc2ccc3cccc4ccc1c2c34
fluorescence lifetime (in ClC(Cl)Cl): 6.53 ns

Compound: CC1=CC(C)=[N+]2C1=Cc1cccn1[B-]2(F)F
fluorescence lifetime (in CCCCCC): 6.21 ns
fluorescence lifetime (in CO): 6.34 ns
fluorescence lifetime (in ClCCl): 5.89 ns

Compound: CCn1c(=O)nc2n(C)c3cc(C)ccc3nc-2c1=O
fluorescence lifetime (in CC#N): 7 ns
fluorescence lifetime (in CO): 6.3 ns
fluorescence lifetime (in ClCCCl): 6.5 ns

Compound: CC(C)(C)c1ccc(-c2nc3c4ccc(-c5ccc6ccccc6c5)cc4c4cc(-c5ccc6ccccc6c5)ccc4c3n2-c2ccc(C(C)(C)C)cc2)cc1
fluorescence lifetime (in ClCCl): 6.6 ns

Compound: CC1=CC(C)=[N+]2C1=C(C)c1cccn1[B-]2(F)F
fluorescence lifetime (in CCCCCC): 6.1 ns
fluorescence lifetime (in CO): 6.31 ns
fluorescence lifetime (in ClCCl): 5.93 ns

Compound: CC(C)CCCN1c2ccccc2CCc2ccccc21
fluorescence lifetime (in CC#N): 0.89 ns
fluorescence lifetime (in CO): 0.86 ns

Compound: CCCCCCOc1cc(/C=C/c2cc(OCCCCCC)c(/C=C/c3cc(OCCCCCC)c(C=O)cc3OCCCCCC)cc2OCCCCCC)c(OCCCCCC)cc1C=O
fluorescence lifetime (in ClCCl): 1.77 ns

Compound: C[Si]1(C)c2ccccc2-c2ccccc21
fluorescence lifetime (in ClCCl): 0.15 ns

Compound: CCN(CC)c1ccc2cc(/C(Cl)=C/C=C/C(=C(C#N)C#N)c3ccc(N(c4ccccc4)c4ccccc4)cc3)c(=O)oc2c1
fluorescence lifetime (in CC(C)=O): 1.51 ns
fluorescence lifetime (in CCOC(C)=O): 2.42 ns
fluorescence lifetime (in CN(C)C=O): 0.21 ns
fluorescence lifetime (in CS(C)=O): 0.18 ns
fluorescence lifetime (in Cc1ccccc1): 1.95 ns
fluorescence lifetime (in ClCCl): 1.56 ns

Compound: COC(=O)/C(C#N)=c1\s/c(=c2/s/c(=C(/C#N)C(=O)OC)c3cc(-c4ccc5c(c4)C(C)(C)c4ccccc4-5)sc23)c2sc(-c3ccc4c(c3)C(C)(C)c3ccccc3-4)cc12
fluorescence lifetime (in Cc1ccccc1): 4.38 ns

Compound: [NH3+]c1cc([NH3+])cc(-c2nc3ccccc3s2)c1
fluorescence lifetime (in O): 0.59 ns

Compound: Cc1cc(C)cc(NC(=O)c2sc(Br)nc2C)c1
fluorescence lifetime (in CO): 0.33 ns
fluorescence lifetime (in ClC(Cl)Cl): 0.18 ns

Compound: Cc1nc(-c2ccc(-n3c4ccccc4c4ccccc43)cc2)cc(-c2ccc(-n3c4ccccc4c4ccccc43)cc2)n1
fluorescence lifetime (in C1CCOC1): 4.1 ns
fluorescence lifetime (in CN(C)C=O): 6.95 ns
fluorescence lifetime (in Cc1ccccc1): 2.05 ns
fluorescence lifetime (in ClC(Cl)Cl): 3.86 ns

Compound: c1ccc(N(c2ccccc2)c2ccc(-c3ccc(-c4ccc(-c5ccc(-c6ccc(N(c7ccccc7)c7ccccc7)cc6)s5)c5nsnc45)s3)cc2)cc1
fluorescence lifetime (in ClC(Cl)Cl): 5.13 ns

Compound: CN(C)c1ccc(/C=C/c2nc3c4ccccc4c4ccccc4c3[nH]2)cc1
fluorescence lifetime (in C1CCOC1): 0.341 ns
fluorescence lifetime (in C1COCCO1): 0.484 ns
fluorescence lifetime (in CC1CCCCC1): 0.471 ns
fluorescence lifetime (in CC#N): 0.356 ns
fluorescence lifetime (in CCOC(C)=O): 0.325 ns
fluorescence lifetime (in CCOCC): 0.391 ns
fluorescence lifetime (in CN(C)C=O): 0.37 ns
fluorescence lifetime (in COC(C)=O): 0.308 ns
fluorescence lifetime (in CS(C)=O): 0.384 ns
fluorescence lifetime (in Cc1ccccc1): 0.306 ns
fluorescence lifetime (in ClC(Cl)Cl): 0.138 ns

Compound: C=CC12N=N[C@](C=C)(C3C4CCC(C4)C31)C1[C@@H]3CC[C@@H](C3)[C@H]12 (stereo not given in full)
fluorescence lifetime (in CC#N): 268 ns

Compound: COc1cc2c(cc1-c1ccccc1)Cc1c3c(c4c(c1-2)-c1cc(OC)c(-c2ccccc2)cc1C4)C(=O)N(CCC(C)C)C3=O
fluorescence lifetime (in C1CCOC1): 3.87 ns
fluorescence lifetime (in CC#N): 6.33 ns
fluorescence lifetime (in CC(C)=O): 5.36 ns
fluorescence lifetime (in CCOC(C)=O): 3.99 ns
fluorescence lifetime (in CS(C)=O): 6.41 ns
fluorescence lifetime (in Cc1ccccc1): 2.55 ns
fluorescence lifetime (in ClC(Cl)Cl): 5.95 ns
fluorescence lifetime (in ClCCl): 5.64 ns

Compound: Cc1cc(C)c(B(c2ccc(N(c3ccccc3)c3ccccc3)cc2)c2c(C)cc(C)cc2C)c(C)c1
fluorescence lifetime (in Cc1ccccc1): 4 ns

Compound: Cc1c(C)c(N2c3ccccc3Oc3ccccc32)c(C)c(C)c1B(c1c(C)c(C)c(N2c3ccccc3Oc3ccccc32)c(C)c1C)c1c(C)c(C)c(N2c3ccccc3Oc3ccccc32)c(C)c1C
fluorescence lifetime (in CC(C)(C)c1ccc(-n2c3ccc([Si](c4ccccc4)(c4ccccc4)c4ccccc4)cc3c3cc([Si](c4ccccc4)(c4ccccc4)c4ccccc4)ccc32)cc1): 1.3 ns

Compound: CCC12C(=C3C(=C4c5ccc(-c6ccc(C(C)=O)s6)cc5S(=O)(=O)C41CC)C(F)(F)C(F)(F)C3(F)F)c1ccc(-c3ccc(C(C)=O)s3)cc1S2(=O)=O (stereo not given)
fluorescence lifetime (in C1COCCO1): 1.9 ns

Compound: COC(=O)c1cc(=O)n(C)c2cc(-c3cc4c5c(c3)CCCN5CCC4)sc12
fluorescence lifetime (in ClCCl): 2.25 ns

Second part, the compound after the results:

fluorescence lifetime (in CCOC(C)=O): 2.64 ns
Compound: OCc1cc2c(cc3ccc4cccc5ccc2c3c45)[nH]1

fluorescence lifetime (in ClC(Cl)Cl): 10.7 ns
Compound: Cc1cc(=O)oc2cc3c(cc12)c1c2ccccc2c2ccccc2c1c1c2ccccc2c2ccccc2c31

fluorescence lifetime (in CC#N): 4.3 ns
Compound: c1ccc(C[n+]2cc3ccc4c[n+](Cc5ccccc5)cc5ccc(c2)c3c45)cc1

fluorescence lifetime (in C1CCOC1): 2.51 ns
fluorescence lifetime (in CS(C)=O): 1.6 ns
fluorescence lifetime (in ClC(Cl)Cl): 1.78 ns
fluorescence lifetime (in ClCCl): 2.56 ns
Compound: COc1ccc(-c2nc(-c3ccccc3O)c(-c3ccccc3O)n2-c2ccc(C)cc2)cc1

fluorescence lifetime (in ClC(Cl)Cl): 0.58 ns
Compound: CCCCCCn1c2cc(/C=C(\C#N)c3ccccc3)ccc2c2ccc(/C=C(\C#N)c3ccccc3)cc21

fluorescence lifetime (in CC#N): 1.5 ns
Compound: O=C(O)c1ccc(-c2ccc(-c3nc(-c4ccccc4)c4ccccn34)cc2)s1

fluorescence lifetime (in ClCCl): 1.78 ns
Compound: CCCCn1c(-c2ccc(-c3nnc(-c4ccc5ccccc5c4)o3)cc2)nc2c3ccccc3c3ccccc3c21

fluorescence lifetime (in ClC(Cl)Cl): 0.706 ns
Compound: Cc1ccc(C2=Cc3c4ccccc4c4ccccc4[n+]3[B-](F)(F)O2)cc1

fluorescence lifetime (in C1CCCCC1): 4.73 ns
fluorescence lifetime (in C1CCOC1): 5.04 ns
fluorescence lifetime (in C1COCCO1): 5.21 ns
fluorescence lifetime (in CC#N): 5.05 ns
fluorescence lifetime (in CCCCCCC): 4.64 ns
fluorescence lifetime (in CCO): 4.53 ns
fluorescence lifetime (in CN(C)C=O): 4.95 ns
fluorescence lifetime (in CO): 3.74 ns
fluorescence lifetime (in O): 2.6 ns
fluorescence lifetime (in OCCO): 3.59 ns
Compound: Cc1nn(-c2ccccc2)c(C2=NN(c3ccc(Br)cc3)[C@@H](c3ccccc3)[C@@H]2c2ccccc2)c1C#N

fluorescence lifetime (in CC#N): 0.31 ns
Compound: Cc1ccc(-c2ccc(/C=C/c3ccc([N+](=O)[O-])cc3)cn2)nc1

fluorescence lifetime (in CC#N): 1.2 ns
Compound: N#C/C(=C\c1ccc(C(F)(F)F)cc1)c1nc(-c2ccc(Cl)cc2)cs1

fluorescence lifetime (in C1COCCO1): 10.3 ns
fluorescence lifetime (in CCOC(C)=O): 6.6 ns
Compound: Clc1nc(Nc2ccccc2)nc(Nc2ccc3cc4ccccc4cc3c2)n1

fluorescence lifetime (in C1CCOC1): 2.57 ns
Compound: CCn1c2ccccc2c2cc(-c3cc(-c4ccc5c(c4)c4ccccc4n5CC)nc(C#N)n3)ccc21

fluorescence lifetime (in ClC(Cl)Cl): 0.436 ns
Compound: F[B-]1(F)OC(c2ccc(Br)cc2)=Cc2c3ccccc3c3ccccc3[n+]21

fluorescence lifetime (in C1CCOC1): 1.1 ns
fluorescence lifetime (in C1COCCO1): 0.9 ns
fluorescence lifetime (in CC#N): 0.8 ns
fluorescence lifetime (in CCCCCO): 0.7 ns
fluorescence lifetime (in CCCCO): 0.8 ns
fluorescence lifetime (in CCCO): 0.7 ns
fluorescence lifetime (in CCO): 0.6 ns
fluorescence lifetime (in CO): 0.8 ns
fluorescence lifetime (in COCCOC): 1.5 ns
fluorescence lifetime (in ClC(Cl)Cl): 0.6 ns
fluorescence lifetime (in ClCCl): 0.9 ns
fluorescence lifetime (in OCCO): 0.8 ns
Compound: O=C(O)c1c2ccccc2nc2ccccc12

fluorescence lifetime (in C1CCOC1): 1.01 ns
fluorescence lifetime (in ClCCl): 0.95 ns
Compound: CCC(CC)COC1=CC2=C3c4cc(OCC(CC)CC)c(-c5ccccc5)n4[B-](F)(F)[n+]4nnn(c43)[B-](F)(F)[N+]2=C1c1ccccc1

fluorescence lifetime (in CCO): 1.66 ns
Compound: CC(=O)N(Cc1ccccn1)c1c2ccccc2c2c3c(cccc13)C(=O)N(Cc1ccccn1)C2=O

fluorescence lifetime (in CC#N): 0.028 ns
Compound: COc1cccc(-[c+]2c3ccccc3oc3ccccc32)c1
